Results from article PMC11856108, “Capsaicin (But Not Other Vanillins) Enhances Estrogen Binding to Its Receptor: Implications for Power Sports and Cancers” (Life, 2025).
pKd: −log10 of the molar value. Like-named read-outs stand apart in the source and are kept apart here.

Columns and labels:
[1] = Binding to steroid hormone by UV spectroscopy
Procedure: (§1) UV spectroscopy in a crystal plate was used to investigate whether CAP has specificity for estrogen alone or whether it can bind to other naturally occurring hormones. To start, CAP was dissolved in a 1:1 solution of water to ethanol at 1 mg/mL ( 3.27×10^−3 M ) and then diluted by thirds eight times. Next, the hormones were dissolved in a 1:1 solution of water to ethanol at a 1/100 dilution. An amount of 50 μL of each CAP dilution was added to 3 wells of a crystal plate, with one well serving as the control, with another 50 μL of 1:1 water to ethanol added, and the other two serving as experimental duplicates, with 50 μL of the prepared hormone solution added. Then, two additional wells were prepared to serve as controls: one containing 100 μL of 1:1 water to ethanol and the other containing 50 μL of prepared hormone solution and 50 μL of 1:1 water to ethanol. Finally, the plate was incubated for 1 h and read in a Spectramax UV-VIS scanning spectrophotometer, spanning wavelengths from 190 to 400 nm. Data analysis involved the subtraction of observed absorbance values from expected absorbance values generated from the control wells ([CAP + 1:1 solution] + [hormone + 1:1 solution] − [1:1 solution]) and plotting them as a function of CAP concentration. Because the solvent (1:1 solution of water–ethanol) was used as a control and subtracted from all wells, the resulting data reflected only the absorbances of the solute compounds. Since each compound has a different lambda maximal absorbance, analysis of the resulting data required finding one common wavelength at which the additions and subtractions of the spectra could be carried out and at which the absorbance of each compound was maximized.
Experiments were also performed to test whether the enhancement or antagonism observed in estradiol binding to the ESR1 might be due to vanilloid compounds binding directly to estradiol or to related steroidal hormones, perhaps protecting them from oxidation or forming a complex that prevented the estradiol binding to its receptor. No vanilloid compound bound to a measurable degree to estradiol or any other steroidal hormone tested.

[2] = molecular target: insulin (human recombinant) (Homo sapiens, UniProt P01308); assay: Binding to insulin by ultraviolet spectroscopy; details: UV spectroscopy
insulin receptor (IR) = insulin receptor (IR) (Homo sapiens, UniProt P06213); assay: Binding to the insulin receptor by ultraviolet spectroscopy; details: UV spectroscopy
Procedure: as §1
[17, 19, 20, 21, 22, 23]. […] Because CAP binds to INS, it was possible that it might antagonize INS binding to its receptor. […] Two types of ultraviolet spectroscopy experiments were performed. In one, INS (1 µM) and the IR were kept constant and the concentration of CAP increased from 0.1 µM to 100 µM. In the other, the CAP (25 µM) and IR were kept constant and the concentration of INS increased from 10 nM to 10 µM. In neither experiment was any significant change in the INS binding curve observed.
CAP did bind to the ESR1 with what appears to be a high affinity (Kd = 0.9 µM) and a lower affinity (Kd = 10 µM) site. […] Other vanilloid compounds also bound to the ESR1 but with lower affinity than CAP (Figure 6). None bound to the IR.

ESR1 = molecular target: T1, ESR1 (Homo sapiens, UniProt P03372); assay: Competitive-binding ELISA of EST-HRP binding to the estrogen receptor
T1 construct: purchased Invitrogen-Thermofisher
T1 sequence (P03372 1-595): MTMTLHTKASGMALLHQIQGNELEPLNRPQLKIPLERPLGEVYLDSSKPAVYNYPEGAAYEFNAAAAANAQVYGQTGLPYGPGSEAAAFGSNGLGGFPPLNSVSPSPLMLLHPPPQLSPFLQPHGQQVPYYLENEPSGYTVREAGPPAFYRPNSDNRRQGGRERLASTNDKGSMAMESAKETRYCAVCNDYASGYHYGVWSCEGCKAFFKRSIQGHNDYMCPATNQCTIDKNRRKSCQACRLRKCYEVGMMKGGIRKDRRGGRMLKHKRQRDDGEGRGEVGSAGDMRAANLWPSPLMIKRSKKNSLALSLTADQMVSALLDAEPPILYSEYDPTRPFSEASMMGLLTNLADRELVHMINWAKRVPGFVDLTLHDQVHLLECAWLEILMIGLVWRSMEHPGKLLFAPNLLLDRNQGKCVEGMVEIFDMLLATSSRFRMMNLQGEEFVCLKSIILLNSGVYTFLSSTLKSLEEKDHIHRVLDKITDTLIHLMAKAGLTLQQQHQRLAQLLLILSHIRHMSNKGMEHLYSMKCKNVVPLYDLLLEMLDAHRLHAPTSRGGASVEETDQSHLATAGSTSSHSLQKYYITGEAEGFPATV

[3] = molecular target: T2, Estrogen receptor alpha (ER alpha) recombinant protein (ESR1) (Homo sapiens, UniProt P03372); assay: Binding to the estrogen receptor by ultraviolet spectroscopy; details: UV spectroscopy; listed as vanillin
T2 sequence (P03372 1-595): T1 sequence (P03372 1-595)

Chain of insulin (human recombinant) (P01308 25-54 limits assumed): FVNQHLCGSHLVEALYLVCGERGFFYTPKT
Chain of insulin (human recombinant) (P01308 90-110 limits assumed): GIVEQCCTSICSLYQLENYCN
Chain of insulin receptor (IR) (P06213 28-1382, species assumed): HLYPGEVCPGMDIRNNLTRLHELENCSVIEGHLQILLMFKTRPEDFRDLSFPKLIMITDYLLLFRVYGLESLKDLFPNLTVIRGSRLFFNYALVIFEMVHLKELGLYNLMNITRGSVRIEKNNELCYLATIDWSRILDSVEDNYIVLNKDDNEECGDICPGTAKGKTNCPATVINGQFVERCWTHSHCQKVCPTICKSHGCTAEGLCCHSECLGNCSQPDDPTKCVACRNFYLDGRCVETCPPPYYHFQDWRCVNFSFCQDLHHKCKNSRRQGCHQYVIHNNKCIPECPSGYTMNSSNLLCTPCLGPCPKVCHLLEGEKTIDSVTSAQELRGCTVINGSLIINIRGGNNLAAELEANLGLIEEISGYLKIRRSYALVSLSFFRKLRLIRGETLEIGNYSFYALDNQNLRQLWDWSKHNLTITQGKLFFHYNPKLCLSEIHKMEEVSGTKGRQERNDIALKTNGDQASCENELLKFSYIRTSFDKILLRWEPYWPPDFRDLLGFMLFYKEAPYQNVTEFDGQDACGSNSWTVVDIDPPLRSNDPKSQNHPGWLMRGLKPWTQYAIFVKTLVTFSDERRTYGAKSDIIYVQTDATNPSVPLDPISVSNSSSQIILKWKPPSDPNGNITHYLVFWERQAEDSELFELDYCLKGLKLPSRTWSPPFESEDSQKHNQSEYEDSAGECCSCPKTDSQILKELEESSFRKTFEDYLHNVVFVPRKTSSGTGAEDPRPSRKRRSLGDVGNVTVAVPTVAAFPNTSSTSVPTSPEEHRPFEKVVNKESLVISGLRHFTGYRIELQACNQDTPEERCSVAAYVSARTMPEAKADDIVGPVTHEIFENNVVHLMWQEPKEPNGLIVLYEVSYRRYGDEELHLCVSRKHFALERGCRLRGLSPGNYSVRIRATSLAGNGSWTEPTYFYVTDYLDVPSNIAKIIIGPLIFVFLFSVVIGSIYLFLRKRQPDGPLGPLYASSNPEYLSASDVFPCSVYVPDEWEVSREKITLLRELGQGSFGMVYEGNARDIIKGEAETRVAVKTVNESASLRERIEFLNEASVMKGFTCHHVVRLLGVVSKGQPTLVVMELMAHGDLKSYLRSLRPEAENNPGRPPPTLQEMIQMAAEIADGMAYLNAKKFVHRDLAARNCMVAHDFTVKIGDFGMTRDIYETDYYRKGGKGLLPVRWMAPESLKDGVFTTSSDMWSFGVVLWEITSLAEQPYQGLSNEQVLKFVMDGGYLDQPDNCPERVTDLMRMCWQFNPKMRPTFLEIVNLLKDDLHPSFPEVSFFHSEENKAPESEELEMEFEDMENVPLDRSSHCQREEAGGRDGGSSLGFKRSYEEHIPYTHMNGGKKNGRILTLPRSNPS

Row | Binding (Kd) 4-Androstene-3,17-dione [1] | Binding (Kd) 5-Pregnan-3β-OL-2O-one [1] | Binding (Kd) Estradiol [1] | Binding (Kd) Estriol [1] | Binding (Kd) Progesterone [1] | Binding (Kd) Estradiol ([1]; listed as vanillic acid) | pKd ([2]; Binding (Kd) Insulin, Table 1) | Binding (Kd) Estradiol ([1]; listed as acetaminophen) | binding to the insulin receptor (in words) (insulin receptor (IR)) | effect on estradiol (EST-HRP) binding to the estrogen receptor (ESR1) | Binding (Kd) Estradiol ([1]; listed as vanillin) | binding to the estrogen receptor (in words) [3] | SMILES | binding to insulin (in words) [2] | effect on estradiol (EST-HRP) binding to the estrogen receptor (ESR1; listed as VAN) | binding to insulin (in words) ([2]; listed as vanillin)
1 | No binding | No binding | No binding | No binding | No binding | did not bind directly to estradiol | 5.40 | – | – | – | – | – | COc1cc(C(=O)O)ccc1O [Van Acid, vanillic acid] | bound almost as well as capsaicin | – | –
2 | No binding | No binding | No binding | No binding | No binding | – | – | did not bind directly to estradiol | – | – | – | – | CC(=O)Nc1ccc(O)cc1 [Acetaminophen, acetaminophen] | Neither vanillin nor acetaminophen bound significantly to insulin | – | –
3 | – | – | – | – | – | – | – | – | did not bind to the IR | – | – | – | C[C@]12CC[C@@H]3c4ccc(O)cc4CC[C@H]3[C@@H]1CC[C@@H]2O [estradiol] | – | – | –
4 | No binding | No binding | No binding | No binding | No binding | – | – | – | did not bind significantly | no effect on estradiol binding | did not bind directly to estradiol | weakly to the estrogen receptor | COc1cc(C=O)ccc1O [Vanillin, vanillin] | – | no significant effect on estradiol binding | Neither vanillin nor acetaminophen bound significantly to insulin
